Experimental data reported in patent publication US10202377B2, “3-(1H-benzo[D]imidazol-2-yl)-1H-pyrazolo[3,4-C]pyridine and therapeutic uses thereof” (Samumed, LLC, priority 2014, dated 2019).
pEC50, pIC50: −log10 of the molar value.

Assays:
[1] = tested on: Wnt activity (Sp5-Luc reporter, SW480 colon carcinoma cells); test: Sp5-Luc Wnt reporter gene screening assay in SW480 colon carcinoma cells; details: Homo sapiens
[2] = tested on: primary human fibroblasts derived from IPF patients (LL29 cells); test: Inhibition of fibrosis (αSMA staining) in TGF-β1-treated primary human fibroblasts from IPF patients; type: cell-based; details: Fibroblast, 96 h, TGF-β1 20 ng/mL, 4 days
Method in brief: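 LL29 IPF fibroblasts in F12 with 1% FBS were stimulated with TGF-β1 (20 ng/mL) and incubated 4 days at 37 °C. SYTOX-positive dead cells were excluded, and αSMA-positive cells were counted by immunostaining as % of total. Values were normalized to TGF-β1/DMSO wells on the same plate, and EC50 derived.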

## O=C(Nc1cncc(-c2cc3c(-c4nc5c(-c6ccsc6)cccc5[nH]4)n[nH]c3cn2)c1)c1ccccc1 [Compound 271, N-(5-(3-(4-(Thiophen-3-yl)-1H-benzo[d]imidazol-2-yl)-1H-pyrazolo[3,4-c]pyridin-5-yl)pyridin-3-yl)benzamide]
[1]
  pIC50: 7.27
[2]
  pEC50: 8.05

## CC(C)(C)CC(=O)Nc1cncc(-c2cc3c(-c4nc5c(-c6ccccc6F)cccc5[nH]4)n[nH]c3cn2)c1 [Compound 68, N-(5-(3-(4-(2-Fluorophenyl)-1H-benzo[d]imidazol-2-yl)-1H-pyrazolo[3,4-c]pyridin-5-yl)pyridin-3-yl)-3,3-dimethylbutanamide]
[1]
  pIC50: 6.78
[2]
  pEC50: 5.78

## CN(C)c1cncc(-c2cc3c(-c4nc5c(-c6cccc(F)c6)cccc5[nH]4)n[nH]c3cn2)c1 [Compound 7, 5-(3-(4-(3-Fluorophenyl)-1H-benzo[d]imidazol-2-yl)-1H-pyrazolo[3,4-c]pyridin-5-yl)-N,N-dimethylpyridin-3-amine]
[1]
  pIC50: 7.37
[2]
  pEC50: 7.77

## Fc1ccc(-c2cccc3[nH]c(-c4n[nH]c5cnc(-c6cncnc6)cc45)nc23)cc1 [Compound 52, 3-(4-(4-Fluorophenyl)-1H-benzo[d]imidazol-2-yl)-5-(pyrimidin-5-yl)-1H-pyrazolo[3,4-c]pyridine]
[1]
  pIC50: 6.91
[2]
  pEC50: 6.83

## Cc1ccc(-c2cccc3[nH]c(-c4n[nH]c5cnc(-c6cncc(NC(=O)CC(C)C)c6)cc45)nc23)s1 [Compound 366, 3-Methyl-N-(5-(3-(4-(5-methylthiophen-2-yl)-1H-benzo[d]imidazol-2-yl)-1H-pyrazolo[3,4-c]pyridin-5-yl)pyridin-3-yl)butanamide]
[1]
  pIC50: 7.51
[2]
  pEC50: 6.65

## Fc1cccc(-c2cccc3[nH]c(-c4n[nH]c5cnc(-c6ccccn6)cc45)nc23)c1 [Compound 953, 3-(4-(3-Fluorophenyl)-1H-benzo[d]imidazol-2-yl)-5-(pyridin-2-yl)-1H-pyrazolo[3,4-c]pyridine]
[1]
  pIC50: 6.60
[2]
  pEC50: 8.05

## c1cncc(-c2cccc3[nH]c(-c4n[nH]c5cnc(-c6cncc(CN7CCCCC7)c6)cc45)nc23)c1 [Compound 93, 5-(5-(Piperidin-1-ylmethyl)pyridin-3-yl)-3-(4-(pyridin-3-yl)-1H-benzo[d]imidazol-2-yl)-1H-pyrazolo[3,4-c]pyridine]
[1]
  pIC50: 6.27
[2]
  pEC50: 8.05

## CN1CCN(c2cccc3[nH]c(-c4n[nH]c5cnc(-c6cncnc6)cc45)nc23)CC1 [Compound 234, 3-(4-(4-Methylpiperazin-1-yl)-1H-benzo[d]imidazol-2-yl)-5-(pyrimidin-5-yl)-1H-pyrazolo[3,4-c]pyridine]
[1]
  pIC50: 6.10
[2]
  pEC50: 8.05

## Fc1cccc(-c2cccc3[nH]c(-c4n[nH]c5cnc(-c6cnccn6)cc45)nc23)c1 [Compound 954, 3-(4-(3-Fluorophenyl)-1H-benzo[d]imidazol-2-yl)-5-(pyrazin-2-yl)-1H-pyrazolo[3,4-c]pyridine]
[1]
  pIC50: 7.35
[2]
  pEC50: 6.60

## FC1(F)CCN(Cc2cncc(-c3cc4c(-c5nc6c(N7CCCCC7)cccc6[nH]5)n[nH]c4cn3)c2)C1 [Compound 181, 5-(5-((3,3-Difluoropyrrolidin-1-yl)methyl)pyridin-3-yl)-3-(4-(piperidin-1-yl)-1H-benzo[d]imidazol-2-yl)-1H-pyrazolo[3,4-c]pyridine]
[1]
  pIC50: 7.06
[2]
  pEC50: 8.05

## CC(C)Nc1cncc(-c2cc3c(-c4nc5c(-c6ccoc6)cccc5[nH]4)n[nH]c3cn2)c1 [Compound 298, 5-(3-(4-(Furan-3-yl)-1H-benzo[d]imidazol-2-yl)-1H-pyrazolo[3,4-c]pyridin-5-yl)-N-isopropylpyridin-3-amine]
[1]
  pIC50: 7.89
[2]
  pEC50: 8.05

## CC(C)(C)C(=O)Nc1cncc(-c2cc3c(-c4nc5c(-c6ccsc6)cccc5[nH]4)n[nH]c3cn2)c1 [Compound 268, N-(5-(3-(4-(Thiophen-3-yl)-1H-benzo[d]imidazol-2-yl)-1H-pyrazolo[3,4-c]pyridin-5-yl)pyridin-3-yl)pivalamide]
[1]
  pIC50: 7.12
[2]
  pEC50: 8.05

## CN1CCN(c2cccc3[nH]c(-c4n[nH]c5cnc(-c6cncc(NC(=O)C7CCCC7)c6)cc45)nc23)CC1 [Compound 229, N-(5-(3-(4-(4-Methylpiperazin-1-yl)-1H-benzo[d]imidazol-2-yl)-1H-pyrazolo[3,4-c]pyridin-5-yl)pyridin-3-yl)cyclopentanecarboxamide]
[1]
  pIC50: 6.20
[2]
  pEC50: 5.00

## Fc1ccc(-c2cccc3[nH]c(-c4n[nH]c5cnc(-c6cncc(CN7CCCC7)c6)cc45)nc23)cc1 [Compound 40, 3-(4-(4-Fluorophenyl)-1H-benzo[d]imidazol-2-yl)-5-(5-(pyrrolidin-1-ylmethyl)pyridin-3-yl)-1H-pyrazolo[3,4-c]pyridine]
[1]
  pIC50: 6.54
[2]
  pEC50: 7.11

## CCNCc1cncc(-c2cc3c(-c4nc5c(-c6ccoc6)cccc5[nH]4)n[nH]c3cn2)c1 [Compound 292, N-((5-(3-(4-(Furan-3-yl)-1H-benzo[d]imidazol-2-yl)-1H-pyrazolo[3,4-c]pyridin-5-yl)pyridin-3-yl)methyl)ethanamine]
[1]
  pIC50: 7.53
[2]
  pEC50: 8.05

## CN(C)Cc1cncc(-c2cc3c(-c4nc5c(-c6cccs6)cccc5[nH]4)n[nH]c3cn2)c1 [Compound 325, N,N-Dimethyl-1-(5-(3-(4-(thiophen-2-yl)-1H-benzo[d]imidazol-2-yl)-1H-pyrazolo[3,4-c]pyridin-5-yl)pyridin-3-yl)methanamine]
[1]
  pIC50: 7.57
[2]
  pEC50: 8.05

## c1ccc(CNCc2cncc(-c3cc4c(-c5nc6c(-c7cccnc7)cccc6[nH]5)n[nH]c4cn3)c2)cc1 [Compound 101, N-Benzyl-1-(5-(3-(4-(pyridin-3-yl)-1H-benzo[d]imidazol-2-yl)-1H-pyrazolo[3,4-c]pyridin-5-yl)pyridin-3-yl)methanamine]
[1]
  pIC50: 6.74
[2]
  pEC50: 8.05

## CCCC(=O)Nc1cncc(-c2cc3c(-c4nc5c(-c6cc(F)cc(CNS(C)(=O)=O)c6)cccc5[nH]4)n[nH]c3cn2)c1 [Compound 433, N-(5-(3-(4-(3-Fluoro-5-(methylsulfonamidomethyl)phenyl)-1H-benzo[d]imidazol-2-yl)-1H-pyrazolo[3,4-c]pyridin-5-yl)pyridin-3-yl)butyramide]
[1]
  pIC50: 7.55
[2]
  pEC50: 8.05

## Cc1cn(-c2cccc3[nH]c(-c4n[nH]c5cnc(-c6cncc(NC(=O)C7CCC7)c6)cc45)nc23)cn1 [Compound 202, N-(5-(3-(4-(4-Methyl-1H-imidazol-1-yl)-1H-benzo[d]imidazol-2-yl)-1H-pyrazolo[3,4-c]pyridin-5-yl)pyridin-3-yl)cyclobutanecarboxamide]
[1]
  pIC50: 7.20
[2]
  pEC50: 8.05

## Fc1ccc(-c2cccc3[nH]c(-c4n[nH]c5cnc(-c6cncc(CN7CCCC7)c6)cc45)nc23)s1 [Compound 352, 3-(4-(5-Fluorothiophen-2-yl)-1H-benzo[d]imidazol-2-yl)-5-(5-(pyrrolidin-1-ylmethyl)pyridin-3-yl)-1H-pyrazolo[3,4-c]pyridine]
[1]
  pIC50: 7.52
[2]
  pEC50: 5.00

## c1ccc(CNCc2cncc(-c3cc4c(-c5nc6c(-c7ccsc7)cccc6[nH]5)n[nH]c4cn3)c2)cc1 [Compound 283, N-Benzyl-1-(5-(3-(4-(thiophen-3-yl)-1H-benzo[d]imidazol-2-yl)-1H-pyrazolo[3,4-c]pyridin-5-yl)pyridin-3-yl)methanamine]
[1]
  pIC50: 7.51
[2]
  pEC50: 8.05
